The record followed here is a melting point compilation (Tetko et al.; mined from patent text by program, amines drawn as free bases though some values may be those of a salt).

For the compound `CS(=O)(=O)c1ccc(-c2ccc3cnc(Nc4ccc(N5CCOCC5)nc4)nn23)cc1`, the melting point lay in the range of 171 to 177 °C.
In the case of `CCC1=C(C(=O)Nc2ccc(Cl)c(C(=O)OC(C)C)c2)SCCO1` it was 90 to 92 °C.
In the case of `CCCCSC(=O)NC(=O)C(c1ccccc1)c1ccccc1` it was 99 °C; in that of `CC(C)(C)OC(=O)Nc1ccc(-c2cc(F)ccc2F)cc1[N+](=O)[O-]`, 104 °C.
Next, `CCOC(=O)C1=C(C)N=C(SCc2ccc(OC)cc2)N(C(=O)OCC)C1c1cccc(OC)c1` (centres undefined): 79 to 81 °C; `CC(C)(C)C(=O)C(Br)Cc1ccc(Cl)cc1` (centres undefined): 48 to 50 °C.
In turn, `CC(C)COC(=O)Oc1c(S(N)(=O)=O)sc2ccccc12` displayed a melting point of 129 to 130 °C.
In the case of `COc1ccc(-c2sc3ccccc3c2C(=O)c2ccc(O)cc2)cc1` it was 188 to 189 °C; in that of `O=C1C2CN(Cc3ccccc3)CC2C(=O)N1Cc1ccccc1` (centres undefined), 100 °C.
In the case of `Cc1ccc(C)c2c1CN(NC(=O)OC(C)(C)C)C2` it was 148 to 151 °C.
In the case of `Clc1ccc2c(c1)C(c1ccccn1)=NCc1ccccc1-2` it was 153 to 155 °C; in that of `COc1cc(Nc2c(C#N)cnc3cc(-c4ccc(Cn5ccnn5)cc4)ccc23)c(Cl)cc1Cl`, 239 to 240 °C; in that of `COc1ccc(OP(Oc2ccc(OC)cc2C(C)(C)C)Oc2ccc(OC)cc2C(C)(C)C)c(C(C)(C)C)c1`, 82 to 86 °C.
For `COC(=O)C(C)NC(=O)CCc1ccc(C(=O)CCl)cc1` (centres undefined), the melting point was in the range of 122 to 124 °C.
For `O=C(Cl)C12CC(C(=O)Cl)(C1)C2`, the melting point lay within 55 to 57 °C.
Next, `CC(=O)NCCCC(=NNC(N)=S)c1ccccc1`: 74 to 83 °C.
In the case of `C=Cc1ccc2nnn(OS(=O)(=O)c3ccc(Cl)cc3)c2c1` it was 125 °C; in that of `CC(=O)NC(C)(C)c1ccc(CN2CCN(c3nccs3)CC2)cc1`, 118 to 120 °C; in that of `C=CCn1c(=O)c2cc(C(=O)O)cn2c2ccccc21`, 306 to 308 °C.
With `O=[N+]([O-])c1ccc(Oc2cccc3c(Oc4ccc([N+](=O)[O-])c([N+](=O)[O-])c4)cccc23)cc1[N+](=O)[O-]`, the melting point was in the range of 224 to 228 °C.
In the case of `COc1ccccc1NC(=O)Nc1nc(N(CCC(=O)O)Cc2cccc(C)c2)nc(N2CCc3ccccc32)n1` it was 201 °C; in that of `Nc1cc(Oc2ccccc2)c([N+](=O)[O-])cc1Cl`, 122 to 124 °C; in that of `O=C1CSCC(c2ccc(F)cc2)N1` (centres undefined), 111 to 112 °C.
In the case of `N#Cc1ccc(C2NC(=O)NC2=O)c(SCCc2ccccc2)c1` (centres undefined) it was 198 °C; in that of `COc1ccc(S(=O)(=O)N(CCCO)c2ccccc2/C=C/c2ccncc2)cc1`, 164 to 167 °C.
`CC[C@@H](C(C)C)[C@H](O)[C@H](O)[C@@H](C)[C@H]1CC[C@H]2[C@@H]3CCC4=CC(=O)CC[C@]4(C)[C@H]3CC[C@]12C` had a melting point of 192 to 194 °C.
Next, `COc1ccc2c(c1)c(CC(=O)O)c(C)n2C(=O)c1ccc(F)c(F)c1`: 113 to 115 °C; `CCc1cc2c(SCC(=O)OC)ncnc2s1`: 36 to 58 °C; `Nc1nc(N)c(-c2ccc(Cl)cc2Cl)c(C(=O)O)n1`: 221 °C.
Next, `CNC(=O)Oc1ccc2c(c1)c1c(n2C)C2(CC1)CCN(C(=O)c1ccccc1)CC2`: 189 to 190 °C.
In the case of `CCCCCCCCCCCCn1c2nc(=O)[nH]c(=O)c-2nc2cc(C)c(C)cc21`, the melting point lay within 223 to 224 °C.
Regarding `CC1OC(n2cnc3c(N)nc(N)nc32)C(O)C1O` (centres undefined), the melting point was in the range of 135 to 138 °C.
Next, `CC(C)C[C@@H](C(=O)O)N(C)C(=O)OC(C)(C)C`: 53 to 55 °C; `CC(C(=O)O)c1c(-c2ccccc2)nn(-c2ccccc2)c1-c1ccccc1` (centres undefined): 95 to 99 °C.
